SMILES strings stand for the structures. Values joined by “and” are separate entries in the source; they are usually repeats but may differ in a detail not shown here. Equal values may be shown once. Toxic doses and inconclusive results are not listed.

This is an account of results in PubChem BioAssay AID330 (DTP/NCI, 2004).

The subject of the test is P388 leukemia ip, CD2F1 mice, survival T/C. Put plainly: NCI In Vivo Anticancer Drug Screen. Data for tumor model P388 Leukemia (intraperitoneal) in CD2F1 (CDF1) mice. The note with it: endpoint: median survival time, higher = longer survival. The method in brief:
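Mice carrying the transplanted tumor received test compound or vehicle. Survival was recorded in each group, and the value is the treated-group measurement divided by that of the vehicle-treated control group.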

The mark [1] stands for this setting: dose: 12.5 mg/kg/injection, schedule: Q01DX009 (ip), vehicle: Klucel (hydroxypropylcellulose) (HPC).
Setting [2] is: dose: 25.0 mg/kg/injection, schedule: Q01DX009 (ip), vehicle: Klucel (hydroxypropylcellulose) (HPC).
Where [3] appears, read: dose: 50.0 mg/kg/injection, schedule: Q01DX009 (ip), vehicle: Klucel (hydroxypropylcellulose) (HPC).
[4] abbreviates: dose: 200.0 mg/kg/injection, schedule: Q01DX009 (ip), vehicle: Klucel (hydroxypropylcellulose) (HPC).
[5] abbreviates: dose: 50.0 mg/kg/injection, schedule: Q01DX009 (ip), vehicle: saline with Tween-80.
The mark [6] stands for this setting: dose: 100.0 mg/kg/injection, schedule: Q01DX009 (ip), vehicle: saline with Tween-80.
The mark [7] stands for this setting: dose: 200.0 mg/kg/injection, schedule: Q01DX009 (ip), vehicle: saline with Tween-80.
[8] abbreviates: dose: 50.0 mg/kg/injection, schedule: Q01DX005 (ip), vehicle: saline with Tween-80.
Where [9] appears, read: dose: 100.0 mg/kg/injection, schedule: Q01DX005 (ip), vehicle: saline with Tween-80.
The mark [10] stands for this setting: dose: 200.0 mg/kg/injection, schedule: Q01DX005 (ip), vehicle: saline with Tween-80.
Setting [11] is: dose: 50.0 mg/kg/injection, schedule: Q01DX009 (ip), vehicle: saline.
Where [12] appears, read: dose: 100.0 mg/kg/injection, schedule: Q01DX009 (ip), vehicle: saline.
Setting [13] is: dose: 200.0 mg/kg/injection, schedule: Q01DX009 (ip), vehicle: saline.

Consider `COC(=O)C1(F)C(=O)NC(=O)NC1OC` (stereo not drawn), for which the T/C by setting is: (dose: 30.0 mg/kg/injection, schedule: Q04DX002 (ip), vehicle: Klucel (hydroxypropylcellulose) (HPC)) 117 % of control; (dose: 60.0 mg/kg/injection, schedule: Q04DX002 (ip), vehicle: Klucel (hydroxypropylcellulose) (HPC)) 118 % of control and 123 % of control; (dose: 240.0 mg/kg/injection, schedule: Q04DX002 (ip), vehicle: Klucel (hydroxypropylcellulose) (HPC)) 157 % of control; (dose: 480.0 mg/kg/injection, schedule: Q04DX002 (ip), vehicle: Klucel (hydroxypropylcellulose) (HPC)) 164 % of control.

Take `CC(C)(C)C1CCC(P(C)(C)=S)CC1` (stereo not drawn): the T/C is 99 % of control under setting [1], 114 % of control under setting [2], 94 % of control under setting [3] and 97 % of control under setting [4].

As to `CCCCCCCOc1ccc(C(=O)O)cc1`, the T/C runs as follows: under setting [1], 105 % of control; under setting [2], 111 % of control; under setting [3], 107 % of control.

For `O=S1(=O)CC2=C(C1)C1C=CC2C2C=CC12` (stereo not drawn), the T/C reads like this: (dose: 25.0 mg/kg/injection, schedule: Q04DX003 (ip), vehicle: saline) 98 % of control; (dose: 50.0 mg/kg/injection, schedule: Q04DX003 (ip), vehicle: saline) 101 % of control; (dose: 100.0 mg/kg/injection, schedule: Q04DX003 (ip), vehicle: saline) 107 % of control and 96 % of control.

For `Cc1ccc(S(=O)(=O)NC(=S)c2ccccc2C(=S)NS(=O)(=O)c2ccc(C)cc2)cc1`, the T/C by setting is: (dose: 100.0 mg/kg/injection, schedule: Q01DX001 (ip), vehicle: saline with Tween-80) 103 % of control; (dose: 200.0 mg/kg/injection, schedule: Q01DX001 (ip), vehicle: saline with Tween-80) 110 % of control; (dose: 400.0 mg/kg/injection, schedule: Q01DX001 (ip), vehicle: saline with Tween-80) 104 % of control.

Turning to `O=C(O)Cc1sc(-c2ccccc2)nc1-c1ccc(Cl)cc1`, the T/C reads like this: under setting [5], 114 % of control; under setting [6], 110 % of control; under setting [7], 112 % of control.

For `CCCCN(CC)CCCCCCCCCCN1CCCc2cc(OC)ccc21`, the T/C was 101 % of control (dose: 12.5 mg/kg/injection, schedule: Q01DX005 (ip), vehicle: saline with Tween-80); 111 % of control (dose: 25.0 mg/kg/injection, schedule: Q01DX005 (ip), vehicle: saline with Tween-80); 115 % of control under setting [8]; 107 % of control under setting [9].

On to `O=[N+]([O-])c1nc2ccccc2[nH]1`, for which the T/C is 101 % of control (dose: 6.25 mg/kg/injection, schedule: Q01DX009 (ip), vehicle: saline with Tween-80); 101 % of control (dose: 12.5 mg/kg/injection, schedule: Q01DX009 (ip), vehicle: saline with Tween-80); 111 % of control (dose: 25.0 mg/kg/injection, schedule: Q01DX009 (ip), vehicle: saline with Tween-80); 108 % of control under setting [5].

Consider `CC(=O)Nc1c([N+](=O)[O-])cc2c3c(cccc13)CC2`, for which the T/C is 86 % of control under setting [6] and 90 % of control under setting [7].

As to `Cc1cn(C2CC(O)C(CS)O2)c(=O)[nH]c1=O` (stereo not drawn), the T/C under setting [8] was 104 % of control, the T/C under setting [9] was 105 % of control and the T/C under setting [10] was 103 % of control.

`COc1cc(-c2nn(CN3CCN(Cn4nc(-c5cc(OC)c(OC)c(OC)c5)oc4=S)CC3)c(=S)o2)cc(OC)c1OC`: the T/C by setting is: (dose: 50.0 mg/kg/injection, schedule: Q01DX005 (ip), vehicle: Klucel (hydroxypropylcellulose) (HPC)) 97 % of control; (dose: 100.0 mg/kg/injection, schedule: Q01DX005 (ip), vehicle: Klucel (hydroxypropylcellulose) (HPC)) 87 % of control; (dose: 200.0 mg/kg/injection, schedule: Q01DX005 (ip), vehicle: Klucel (hydroxypropylcellulose) (HPC)) 93 % of control.

Regarding `C=CCC(C(=O)OC)c1cc(OC)c(OC)c(OC)c1` (stereo not drawn), the T/C (dose: 1.25 mg/kg/injection, schedule: Q01DX009 (ip), vehicle: saline) was 97 % of control; the T/C (dose: 2.5 mg/kg/injection, schedule: Q01DX009 (ip), vehicle: saline) is 100 % of control; the T/C (dose: 5.0 mg/kg/injection, schedule: Q01DX009 (ip), vehicle: saline) is 115 % of control.

For `CC(=O)NC1C(Nc2ccc(S(=O)(=O)Nc3ncccn3)cc2)OC(CO)C(O)C1O` (stereo not drawn), the T/C is 106 % of control (dose: 50.0 mg/kg/injection, schedule: Q01DX005 (ip), vehicle: saline); 99 % of control (dose: 100.0 mg/kg/injection, schedule: Q01DX005 (ip), vehicle: saline); 101 % of control (dose: 200.0 mg/kg/injection, schedule: Q01DX005 (ip), vehicle: saline).

For the compound `Cc1ccc(NCC2CCCN3CCCCC23)c2c(=O)c3ccccc3sc12` (stereo not drawn), the T/C is 101 % of control under setting [8]; 97 % of control under setting [11]; 96 % of control under setting [9]; 99 % of control under setting [12]; 106 % of control under setting [10]; 124 % of control under setting [13].

Turning to `CC(C)(C)OOC(=O)Cc1ccccc1`, the T/C (dose: 60.0 mg/kg/injection, schedule: Q01DX005 (ip), vehicle: saline with Tween-80) was 104 % of control; the T/C (dose: 120.0 mg/kg/injection, schedule: Q01DX005 (ip), vehicle: saline with Tween-80) was 122 % of control; the T/C (dose: 240.0 mg/kg/injection, schedule: Q01DX005 (ip), vehicle: saline with Tween-80) was 122 % of control.

In the case of `N#Cc1ccc(OC(=O)Nc2ccc(Br)cc2)cc1`, the T/C is 115 % of control (dose: 60.0 mg/kg/injection, schedule: Q01DX005 (ip), vehicle: Klucel (hydroxypropylcellulose) (HPC)); 114 % of control (dose: 120.0 mg/kg/injection, schedule: Q01DX005 (ip), vehicle: Klucel (hydroxypropylcellulose) (HPC)); 108 % of control (dose: 240.0 mg/kg/injection, schedule: Q01DX005 (ip), vehicle: Klucel (hydroxypropylcellulose) (HPC)).

For `Cc1nnsc1-c1nnc2sc(C(F)(F)F)nn12`, the T/C (dose: 50.0 mg/kg/injection, schedule: Q04DX002 (ip), vehicle: Klucel (hydroxypropylcellulose) (HPC)) was 100 % of control; the T/C (dose: 100.0 mg/kg/injection, schedule: Q04DX002 (ip), vehicle: Klucel (hydroxypropylcellulose) (HPC)) is 100 % of control; the T/C (dose: 200.0 mg/kg/injection, schedule: Q04DX002 (ip), vehicle: Klucel (hydroxypropylcellulose) (HPC)) is 100 % of control.

Consider `CCOC(=O)/C(C=NCC(C)(CN=C/C(C(=O)OCC)=C(/C)O)CN=C/C(C(=O)OCC)=C(/C)O)=C(\C)O` (stereo not drawn), for which the T/C under setting [3] is 93 % of control; the T/C (dose: 100.0 mg/kg/injection, schedule: Q01DX009 (ip), vehicle: Klucel (hydroxypropylcellulose) (HPC)) is 90 % of control; the T/C under setting [4] was 87 % of control.

With `CC(=O)CC(C)=O.CCN(CC)CC[C-]=O.[Pd+2]`, the T/C reads like this: (dose: 0.78 mg/kg/injection, schedule: Q04DX003 (ip), vehicle: propolene glycol) 97 % of control; (dose: 1.56 mg/kg/injection, schedule: Q04DX003 (ip), vehicle: propolene glycol) 95 % of control; (dose: 3.13 mg/kg/injection, schedule: Q04DX003 (ip), vehicle: propolene glycol) 97 % of control; (dose: 6.25 mg/kg/injection, schedule: Q04DX003 (ip), vehicle: propolene glycol) 96 % of control; (dose: 12.5 mg/kg/injection, schedule: Q04DX003 (ip), vehicle: other) 123 % of control; (dose: 12.5 mg/kg/injection, schedule: Q04DX003 (ip), vehicle: propolene glycol) 91 % of control. In addition, the T/C (dose: 25.0 mg/kg/injection, schedule: Q04DX003 (ip), vehicle: other) is 120 % of control.

On to `Cc1ccc(S(=O)(=O)O/N=C(/C#N)c2ccccc2)cc1`, for which the T/C runs as follows: under setting [11], 101 % of control; under setting [6], 102 % of control; under setting [12], 99 % of control; under setting [7], 101 % of control; under setting [13], 105 % of control; (dose: 400.0 mg/kg/injection, schedule: Q01DX009 (ip), vehicle: saline with Tween-80) 97 % of control.
